{"source": "patent US10159635B2", "about": "“Cosmetic and pharmaceutical uses of saccharides” (CURAPEL (SCOTLAND) LIMITED, priority 2012, dated 2018)", "key": {"[1]": {"test_system": "interleukin-8 (IL-8) production by HaCaT keratinocytes", "assay": "IL-8 ELISA on culture supernatant of keratinocytes", "type": "cell-based", "protocol": "Following an overnight coating of a flat-bottomed 96 well plate with an anti-IL-8 antibody, a 9-point IL-8 standard curve was generated using serial dilutions from a 2000 pg/ml IL-8 stock solution. These were cultured on the 96 well plate for 2 h along side culture supernatants derived from keratinocytes exposed to sugars. The plate was then washed and incubated for 2 h with an anti-IL-8 biotin-antibody before the plate was again washed and left for 20 min with a solution of streptavidin-HRP. After a final wash the plate was coated with a solution of tetramethyl benzidine forming a blue reaction product, the intensity of which relates to amount of IL-8 present in the original culture supernatant. This reaction was stopped using sulphuric acid turning the solution yellow which was then read on a microplate reader at […]. Unknown sample concentrations of IL-8 were determined using the standard curve."}, "[2]": {"test_system": "melanin in ex-vivo human skin", "assay": "Masson Fontana melanin staining of ex-vivo human skin in organ culture", "type": "cell-based", "protocol": "Samples of full thickness ex-vivo human skin were obtained from elective plastic surgery procedures. […] Two concentrations of the NDO melibiose, 1.5 and 3.0% (w/v) were tested for their ability to reduce skin pigmentation by addition to the medium surrounding the cultured skin samples at day 1 and every time the medium was changed thereafter. As a control some skin samples were cultured under identical conditions apart from the […] of melibiose.\nAt day 6, the skin samples were immersed in cryo-embedding medium and 5 μm sections cut and stained using the Masson Fontana assay. The principle of the Masson Fontana assay is that melanin granules reduce silver from ammoniacal silver nitrate solution to a visible metallic state. Information on the protocol for the Masson-Fontana Assay may be found in relevant laboratory handbooks, for example Lille RD, 1965, Histopathologic Technique and Practical Histochemistry, 3rd Ed 1965, the Blakiston Division, McGraw Hill Book Company, p 240, which is incorporated herein by reference.\nFollowing the fixation of cryosections of skin with ethanol/acetic acid, slides were heated in 0.5% ammoniacal silver nitrate solution using a microwave. Sections were then toned in 1% gold chloride, fixed in 5% sodium thiosulphate and counterstained with haematoxylin before mounting using DPEX. Melanin stain can then be visualised using light microscopy.\nSamples of full thickness ex-vivo human skin were obtained as described in Example 1 and were maintained in organ culture for 6 days. Two concentrations of the NDO melibiose, 25 mM and 50 mM, and two concentration of the NDO P95 (a 95% mixture of oligofructose, also known as fructooligosaccharides (FOS)), 25 mM and 50 mM, were tested for their ability to reduce skin pigmentation by addition to the medium surrounding the cultured skin samples at day 1 and every time the medium was changed thereafter. As a control some skin samples were cultured under identical conditions apart from the absence of NDO. […]"}}}
{"molecule": "OC[C@H]1O[C@H](OCC2O[C@@H](O)[C@H](O)[C@@H](O)[C@@H]2O)[C@H](O)[C@@H](O)[C@H]1O", "note": "(some centres unmarked) [melibiose]", "values": [{"measurement": "constitutive (baseline) IL-8 secretion", "setting": "[1]; HaCaT keratinocytes, unstimulated, FIG. 4a", "result": "mildly dose-responsive suppression"}, {"measurement": "IL-8 secretion in response to IL-1β stimulation", "setting": "[1]; keratinocytes stimulated with IL-1β, 5% melibiose, FIG. 4b", "result": "reduced to nearly control levels"}, {"measurement": "reduction in melanin staining (mean density, image analysis) in treated skin vs control", "setting": "[2]; Example 1, ex-vivo human skin, 6 days culture, 25 mM or 50 mM melibiose, FIG. 2b", "result": "approximately 10%"}, {"measurement": "melanin in stained skin sections, treated vs untreated control", "setting": "[2]; Example 1, full thickness ex-vivo human skin, 6 days organ culture, melibiose 1.5 and 3.0% (w/v) in medium, FIG. 2a", "result": "significant reduction in melanin"}, {"measurement": "mean density of melanin staining, treated skin vs control", "setting": "[2]; Example 2, ex-vivo human skin, 6 days organ culture, 25 mM or 50 mM NDO in medium, FIG. 3", "result": "reduction in melanin staining"}]}
